Results on eleven molecules are retold here after ChEMBL document CHEMBL1201862, “PubChem BioAssay data set” (2004).

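Following 48 hours of exposure in 96-well plates, responses at five concentrations were used to interpolate endpoints linearly. Here, GI50 denotes the concentration required for 50% inhibition of growth.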 Calls of active or inactive are those of the source. Rule as the data show it: active = GI50 up to about 1.1 µM and inactive = higher.

Holding throughout (experiment): DTP human tumour cell line panel, 48 h
Assay [1] deals with 786-0.
Assay [2] has as its system SW-620.
Assay [3] relates to HCT-116.
Assay [4] deals with LOX IMVI.
The test system of assay [5] is SK-MEL-2.
Assay [6] concerns SNB-75.
For assay [7], the system named is NCI-H23.
For assay [8], the system named is SNB-19.
Assay [9] concerns SK-MEL-28.
Assay [10] deals with MOLT-4.
Assay [11] concerns SF-539.
Assay [12] concerns SF-295.
Assay [13] deals with HOP-92.
Assay [14] concerns HL-60.
Assay [15] concerns DU-145.
In assay [16] the test system is Malme-3M.
Assay [17] has as its system ACHN.
Assay [18] deals with CAKI-1.
Assay [19] deals with RPMI-8226.
Assay [20] deals with MDA-MB-435.

A word on the GI50: it is the concentration that inhibits growth by half. Consider `CC1C2(C)OC(=N)C(C#N)(C(C)O2)C1(C#N)C#N` (configuration not stated), for which the GI50 in assay [1] is 22 µM (inactive); in assay [2], 16.6 µM (inactive); in [3], 24.4 µM (inactive); in assay [4] it was 19.5 µM (inactive); in [5], 19.9 µM (inactive); in assay [6], > 100 µM (inactive). The GI50 was 28.8 µM (inactive) in [7]; > 10 µM (inactive) in [8]; 27.4 µM (inactive) in assay [9]; 36 µM (inactive) in [10]; 22.1 µM (inactive) in assay [11]; 90.2 µM (inactive) in assay [12]. The GI50 was 16.9 µM (inactive) in assay [13]; 14.1 µM (inactive) in assay [14]; 25.7 µM (inactive) in [15]; 25 µM (inactive) in assay [16]; 33.3 µM (inactive) in assay [17]; 13.6 µM (inactive) in assay [18].

Turning to `CC12C/C(=C\c3ccccc3)C(=O)C3C1CCCC32`, the GI50 in assay [1] is 95.9 µM (inactive); in assay [2] it was > 100 µM (inactive); in assay [19], 34.2 µM (inactive); in assay [3] it was 67.8 µM (inactive); in assay [4], 72.8 µM (inactive); in [5], > 100 µM (inactive). In addition, the GI50 was 92.9 µM (inactive) in [6]; > 100 µM (inactive) in assay [7]; > 100 µM (inactive) in [8]; > 100 µM (inactive) in assay [9]; 21.5 µM (inactive) in [10]; > 100 µM (inactive) in assay [11]. Moreover, the GI50 in [12] was > 100 µM (inactive); in [13], > 100 µM (inactive); in [14] it was 21.5 µM (inactive); in [16], > 100 µM (inactive); in assay [17] it was > 100 µM (inactive); in assay [18] it was > 100 µM (inactive).

Consider `CC1(C)C2C/C(=C\c3ccccc3)C(=O)C1C2` (configuration not stated), for which the GI50 in [1] is > 100 µM (inactive); in assay [2], > 100 µM (inactive); in assay [19], 61.8 µM (inactive); in assay [3] it was 90.4 µM (inactive); in assay [4], > 100 µM (inactive); in [5], > 100 µM (inactive). For the same molecule, the GI50 is 25.1 µM (inactive) in [6]; 55.8 µM (inactive) in [7]; > 100 µM (inactive) in [8]; 87.5 µM (inactive) in assay [9]; 56.9 µM (inactive) in [10]; > 100 µM (inactive) in assay [11]. Also, the GI50 is > 100 µM (inactive) in [12]; > 100 µM (inactive) in [13]; 35.9 µM (inactive) in [14]; > 100 µM (inactive) in assay [16]; > 100 µM (inactive) in [17]; > 100 µM (inactive) in assay [18].

For `COc1ccc(/C=C/NC=O)cc1`, the GI50 in assay [1], in assay [2], in assay [19], in [3], in assay [4] and in assay [5] was > 100 µM (inactive) in each case. Moreover, the GI50 in [6] is 18.1 µM (inactive); in assay [7] it was > 100 µM (inactive); in [8], > 100 µM (inactive); in assay [9] it was > 100 µM (inactive); in [20] it was > 100 µM (inactive); in [10] it was > 100 µM (inactive). Also, the GI50 in [11], in assay [12], in [14], in assay [15], in assay [16] and in [17] was > 100 µM (inactive) throughout.

With `CCN(CC)CCOc1ccc(/C=C(\C#N)c2ccc(OCCN(CC)CC)cc2)cc1`, the GI50 in assay [1] is 11.3 µM (inactive); in assay [2], 15.3 µM (inactive); in assay [19] it was 13 µM (inactive); in [3], 5.87 µM (inactive); in assay [4], 12.6 µM (inactive); in assay [5] it was 21.4 µM (inactive). For the same molecule, the GI50 in [6] was 16 µM (inactive); in [7], 17.3 µM (inactive); in [8] it was 36.4 µM (inactive); in assay [9], 16.5 µM (inactive); in assay [10], 9.12 µM (inactive); in [11] it was 7.64 µM (inactive). Also, the GI50 in assay [12] was 13.4 µM (inactive); in [13], 16.9 µM (inactive); in [14], 4.84 µM (inactive); in assay [15], 65.6 µM (inactive); in assay [16] it was 14.5 µM (inactive); in [17], 27.3 µM (inactive). For the same molecule, in assay [18], the GI50 was > 43.7 µM (inactive).

Turning to `Cc1cccc(-n2c(C)nc3ccc(NC4OC(CO)C(O)C(O)C4O)cc3c2=O)c1` (configuration not stated), the GI50 in assay [1] was > 100 µM (inactive); in assay [2] it was > 100 µM (inactive); in assay [19], > 100 µM (inactive); in assay [3], > 100 µM (inactive); in assay [4], > 100 µM (inactive); in assay [5], 61 µM (inactive). In addition, the GI50 in assay [6], in [7], in assay [8], in assay [9], in assay [20] and in assay [10] was > 100 µM (inactive) in each case. Also, the GI50 in assay [12], in [14], in assay [15], in [16], in [17] and in assay [18] was > 100 µM (inactive) each time.

For `CCOC(=O)C/C(N)=C(\C#N)C(=O)OCC`, the GI50 in assay [1], in assay [2], in assay [19], in assay [3], in assay [4] and in [5] was > 100 µM (inactive) each time. Besides, the GI50 in assay [6], in assay [7], in assay [8], in assay [9], in [10] and in [11] was > 100 µM (inactive) each time. Also, the GI50 in [12], in [13], in assay [14], in assay [16], in assay [17] and in assay [18] was > 100 µM (inactive) in each case.

For the molecule `COc1ccc(C)cc(O)c1=O`, the GI50 in assay [1] is 10.5 µM (inactive); in assay [2] it was 44 µM (inactive); in assay [19] it was 39.6 µM (inactive); in assay [3] it was 33.7 µM (inactive); in assay [4], 11.9 µM (inactive); in assay [5], 94.8 µM (inactive). The GI50 in [6] was > 100 µM (inactive); in assay [7], 40.1 µM (inactive); in assay [8], 95.1 µM (inactive); in [9], 57.4 µM (inactive); in [10], 9.06 µM (inactive); in assay [11] it was 42.5 µM (inactive). The GI50 was 27.9 µM (inactive) in [12]; 26.2 µM (inactive) in [13]; 19.1 µM (inactive) in [14]; 57.1 µM (inactive) in assay [16]; 22.8 µM (inactive) in [17]; 28.2 µM (inactive) in assay [18].

For the molecule `COc1cc([C@@H]2c3cc4c(cc3[C@@H](NCc3ccccc3F)C3COC(=O)[C@@H]32)OCO4)cc(OC)c1O` (some centres not stated), the GI50 is 2.81 µM (inactive) in assay [1]; 0.851 µM (active) in [2]; 1.93 µM (inactive) in assay [19]; 5.27 µM (inactive) in assay [3]; 3.07 µM (inactive) in assay [4]; 23.4 µM (inactive) in [5]. Also, the GI50 in assay [6] was 5.45 µM (inactive); in [7], 2.29 µM (inactive); in assay [8], 5.36 µM (inactive); in [9], 12.2 µM (inactive); in assay [10], 0.425 µM (active); in assay [11], 1.47 µM (inactive). For the same molecule, the GI50 is 1.43 µM (inactive) in assay [12]; 4.04 µM (inactive) in assay [13]; 1.18 µM (inactive) in assay [14]; 5.94 µM (inactive) in assay [16]; 1.11 µM (active) in [17]; 1.91 µM (inactive) in assay [18].

Turning to `N=C(N)c1ccc(/N=N/c2c(O)ccc3cc(O)ccc23)cc1`, the GI50 in [1], in assay [2], in [19], in [3], in assay [5] and in assay [8] was > 100 µM (inactive) in each case. In addition, the GI50 in assay [9], in [20], in [10], in assay [11], in [12] and in [13] was > 100 µM (inactive) each time. The GI50 in assay [14] is > 100 µM (inactive); in [16], 56.2 µM (inactive); in [17], > 100 µM (inactive); in assay [18] it was > 100 µM (inactive).

With `COc1cc(C2c3cc4c(cc3[C@@H](NCCN3CCCCC3)C3COC(=O)[C@H]23)OCO4)cc(OC)c1O` (some centres not stated), the 50% growth inhibitory concentration (GI50) in assay [1] is 0.188 µM (active); in assay [2], 0.621 µM (active); in assay [19] it was 0.4 µM (active); in assay [3], 1.82 µM (inactive); in [4], 0.204 µM (active); in [5] it was 2.06 µM (inactive). Besides, the GI50 in assay [6] is 0.256 µM (active); in assay [7], 0.167 µM (active); in assay [8] it was 0.323 µM (active); in assay [9], 2.42 µM (inactive); in [10], < 0.01 µM (active); in [11], 0.209 µM (active). For the same molecule, the GI50 in [12] is 0.0986 µM (active); in assay [13], 0.265 µM (active); in assay [14], 0.0322 µM (active); in assay [16], 0.451 µM (active); in assay [17] it was 0.671 µM (active); in assay [18] it was 0.0802 µM (active).
